From patent US10683282B2, “Multi-substituted pyrimidine derivatives with excellent kinase inhibitory activities” (KOREA INSTITUTE OF SCIENCE AND TECHNOLOGY, priority 2018, dated 2020)
Read-outs that look alike come from different tables or passages of the source.

What was measured:
[1] = biological target: T1, ACK1 (Homo sapiens, UniProt Q07912); assay: Kinase screening, HotSpot assay (Reaction Biology); assay type: biochemical
T1 construct: purchased Reaction Biology Corporation
Experimental: (§1) Kinase screening was performed using a “HotSpot” assay platform method by Reaction Biology Corporation. The reaction buffer used herein contained 20 mM HEPES (pH 7.5), 10 mM MgCl2, 1 mM EGTA, 0.02% Brij35, 0.02 mg/mL BSA, 0.1 mM Na3VO4, 2 mM DTT and 1% DMSO. The required cofactors were added in accordance with the kinase reaction. Freshly made buffer and cofactors were added at a concentration of 20 μM during the selected enzyme reaction. A solution of the test compound in dimethylsulfoxide (DMSO) was added at a suitable concentration to this solution. In order to initiate reaction, […] (specific activity […]) was added and incubated at room temperature for 2 hours. The test compound was screened at a starting concentration of 20 μM in a 10-dose IC50 mode. IC50 of Staurosporine used as a control drug was obtained at a starting concentration of 20 μM in a 10-dose IC50 mode.

[2] = biological target: T2, ARK5/NUAK1 (Homo sapiens, UniProt O60285); assay: Kinase screening, HotSpot assay (Reaction Biology); assay type: biochemical
T2 construct: purchased Reaction Biology Corporation
T2 sequence (O60285 1-661): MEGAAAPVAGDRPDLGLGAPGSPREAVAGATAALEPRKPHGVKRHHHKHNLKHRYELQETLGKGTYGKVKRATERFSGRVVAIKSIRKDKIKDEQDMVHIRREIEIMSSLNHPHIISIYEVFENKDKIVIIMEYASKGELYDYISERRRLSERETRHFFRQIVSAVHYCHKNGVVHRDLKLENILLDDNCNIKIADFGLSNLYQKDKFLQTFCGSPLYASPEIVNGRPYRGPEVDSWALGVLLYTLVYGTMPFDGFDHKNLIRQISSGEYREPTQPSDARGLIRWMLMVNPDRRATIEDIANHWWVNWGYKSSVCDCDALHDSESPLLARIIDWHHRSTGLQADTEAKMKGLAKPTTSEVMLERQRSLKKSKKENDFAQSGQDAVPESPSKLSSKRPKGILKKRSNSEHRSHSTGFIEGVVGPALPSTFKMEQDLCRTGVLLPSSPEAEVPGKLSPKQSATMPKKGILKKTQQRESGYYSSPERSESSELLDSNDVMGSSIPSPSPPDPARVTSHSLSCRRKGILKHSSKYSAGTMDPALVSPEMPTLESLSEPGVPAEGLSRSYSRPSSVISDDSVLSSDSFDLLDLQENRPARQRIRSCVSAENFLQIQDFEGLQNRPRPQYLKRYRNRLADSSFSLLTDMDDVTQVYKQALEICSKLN
Experimental: as §1

[3] = biological target: T3, AXL (Homo sapiens, UniProt P30530); assay: Kinase screening, HotSpot assay (Reaction Biology); assay type: biochemical
T3 construct: purchased Reaction Biology Corporation
T3 sequence (P30530 26-894): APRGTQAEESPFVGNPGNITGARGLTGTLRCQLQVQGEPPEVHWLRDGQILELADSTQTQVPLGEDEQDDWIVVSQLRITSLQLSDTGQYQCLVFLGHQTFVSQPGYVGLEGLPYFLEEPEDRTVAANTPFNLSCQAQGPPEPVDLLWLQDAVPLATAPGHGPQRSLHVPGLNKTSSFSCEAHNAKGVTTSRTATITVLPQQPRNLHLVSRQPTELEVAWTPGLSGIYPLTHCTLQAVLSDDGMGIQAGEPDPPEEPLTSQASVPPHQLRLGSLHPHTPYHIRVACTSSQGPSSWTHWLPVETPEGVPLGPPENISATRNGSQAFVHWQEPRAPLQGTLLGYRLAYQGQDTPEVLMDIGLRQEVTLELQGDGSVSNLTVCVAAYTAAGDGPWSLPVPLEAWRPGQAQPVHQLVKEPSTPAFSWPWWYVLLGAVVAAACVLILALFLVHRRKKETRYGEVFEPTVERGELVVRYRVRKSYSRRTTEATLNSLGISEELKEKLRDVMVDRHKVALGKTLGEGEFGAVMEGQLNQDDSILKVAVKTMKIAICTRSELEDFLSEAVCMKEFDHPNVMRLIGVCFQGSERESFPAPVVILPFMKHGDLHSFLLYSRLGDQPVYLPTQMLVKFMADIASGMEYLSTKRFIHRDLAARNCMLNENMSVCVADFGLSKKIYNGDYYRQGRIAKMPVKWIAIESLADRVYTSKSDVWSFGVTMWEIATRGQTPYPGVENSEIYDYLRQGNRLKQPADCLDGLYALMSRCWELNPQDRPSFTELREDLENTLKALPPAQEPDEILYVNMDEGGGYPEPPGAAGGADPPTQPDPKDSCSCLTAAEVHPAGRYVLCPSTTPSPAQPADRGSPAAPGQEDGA
Experimental: as §1

[4] = biological target: T4, AXL(R499C) (Homo sapiens, UniProt P30530, R499C); assay: Kinase screening, HotSpot assay (Reaction Biology); assay type: biochemical
T4 construct: purchased Reaction Biology Corporation
T4 sequence (P30530 26-894 R499C): as the sequence (P30530 26-894) above, with R474C counted along it
Experimental: as §1

[5] = biological target: T5, JAK1 (Homo sapiens, UniProt P23458); assay: Kinase screening, HotSpot assay (Reaction Biology); assay type: biochemical
T5 construct: purchased Reaction Biology Corporation
T5 sequence (P23458 whole entry): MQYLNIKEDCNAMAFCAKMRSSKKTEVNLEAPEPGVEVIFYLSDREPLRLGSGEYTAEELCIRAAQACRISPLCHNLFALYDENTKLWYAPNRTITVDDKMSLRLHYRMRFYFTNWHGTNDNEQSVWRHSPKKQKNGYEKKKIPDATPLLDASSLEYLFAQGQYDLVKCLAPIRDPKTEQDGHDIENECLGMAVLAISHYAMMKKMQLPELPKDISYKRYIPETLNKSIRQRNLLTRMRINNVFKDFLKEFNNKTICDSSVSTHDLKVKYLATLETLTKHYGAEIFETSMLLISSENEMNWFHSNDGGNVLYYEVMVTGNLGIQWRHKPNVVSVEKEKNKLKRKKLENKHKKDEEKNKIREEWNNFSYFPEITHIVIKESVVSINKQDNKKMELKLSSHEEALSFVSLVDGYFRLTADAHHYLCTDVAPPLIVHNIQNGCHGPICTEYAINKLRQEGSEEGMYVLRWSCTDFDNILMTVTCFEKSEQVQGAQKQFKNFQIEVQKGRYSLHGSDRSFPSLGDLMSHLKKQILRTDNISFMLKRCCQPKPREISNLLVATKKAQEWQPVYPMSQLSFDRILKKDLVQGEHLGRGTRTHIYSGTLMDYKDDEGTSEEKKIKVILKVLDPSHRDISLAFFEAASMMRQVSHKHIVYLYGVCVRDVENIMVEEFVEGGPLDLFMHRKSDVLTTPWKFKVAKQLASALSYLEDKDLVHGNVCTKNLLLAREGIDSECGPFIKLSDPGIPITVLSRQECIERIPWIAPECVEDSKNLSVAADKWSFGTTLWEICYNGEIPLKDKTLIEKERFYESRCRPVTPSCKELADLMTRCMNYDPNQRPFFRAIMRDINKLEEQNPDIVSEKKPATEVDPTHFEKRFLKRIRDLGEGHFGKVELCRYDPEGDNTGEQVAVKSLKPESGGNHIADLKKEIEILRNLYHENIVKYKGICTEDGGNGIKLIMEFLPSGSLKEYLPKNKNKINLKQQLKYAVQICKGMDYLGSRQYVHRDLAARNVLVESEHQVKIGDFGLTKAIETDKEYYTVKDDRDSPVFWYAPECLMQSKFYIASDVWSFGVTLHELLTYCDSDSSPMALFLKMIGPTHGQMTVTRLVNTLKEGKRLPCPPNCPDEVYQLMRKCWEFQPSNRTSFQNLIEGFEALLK
Experimental: as §1

[6] = biological target: T6, JAK2 (Homo sapiens, UniProt O60674); assay: Kinase screening, HotSpot assay (Reaction Biology); assay type: biochemical
T6 construct: purchased Reaction Biology Corporation
T6 sequence (O60674 whole entry): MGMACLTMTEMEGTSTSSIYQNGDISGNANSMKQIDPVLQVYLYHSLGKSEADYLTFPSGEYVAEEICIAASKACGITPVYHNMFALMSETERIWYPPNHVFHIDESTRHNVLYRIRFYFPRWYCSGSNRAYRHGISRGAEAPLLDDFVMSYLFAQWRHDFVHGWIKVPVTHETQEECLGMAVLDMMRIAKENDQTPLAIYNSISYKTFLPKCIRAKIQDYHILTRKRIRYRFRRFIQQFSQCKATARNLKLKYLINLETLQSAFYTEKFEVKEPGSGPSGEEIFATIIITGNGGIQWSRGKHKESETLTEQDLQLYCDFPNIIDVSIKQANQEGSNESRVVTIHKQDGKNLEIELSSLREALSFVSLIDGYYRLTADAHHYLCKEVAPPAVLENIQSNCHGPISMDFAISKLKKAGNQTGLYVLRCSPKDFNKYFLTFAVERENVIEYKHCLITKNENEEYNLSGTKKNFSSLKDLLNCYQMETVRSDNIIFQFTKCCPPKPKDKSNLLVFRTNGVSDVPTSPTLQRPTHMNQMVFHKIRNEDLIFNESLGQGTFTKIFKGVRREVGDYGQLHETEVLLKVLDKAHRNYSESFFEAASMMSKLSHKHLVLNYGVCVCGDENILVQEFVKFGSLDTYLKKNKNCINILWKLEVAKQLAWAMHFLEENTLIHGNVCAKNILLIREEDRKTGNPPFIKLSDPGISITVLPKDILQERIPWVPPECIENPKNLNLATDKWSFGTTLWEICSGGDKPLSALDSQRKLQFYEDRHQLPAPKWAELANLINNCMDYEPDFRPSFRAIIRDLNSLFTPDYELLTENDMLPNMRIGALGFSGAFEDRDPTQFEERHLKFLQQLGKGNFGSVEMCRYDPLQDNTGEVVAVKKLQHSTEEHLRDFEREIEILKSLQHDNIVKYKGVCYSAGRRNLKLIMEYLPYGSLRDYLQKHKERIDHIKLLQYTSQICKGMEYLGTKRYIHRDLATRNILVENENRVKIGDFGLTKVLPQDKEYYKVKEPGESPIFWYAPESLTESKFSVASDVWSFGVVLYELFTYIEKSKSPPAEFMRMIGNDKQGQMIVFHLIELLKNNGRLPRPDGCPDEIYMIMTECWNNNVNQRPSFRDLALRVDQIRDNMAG
Experimental: as §1

[7] = biological target: T7, JAK2(V617F) (Homo sapiens, UniProt O60674, V617F); assay: Kinase screening, HotSpot assay (Reaction Biology); assay type: biochemical
T7 construct: purchased Reaction Biology Corporation
T7 sequence (O60674 whole entry V617F): as the sequence (O60674 whole entry) above, with V617F counted along it
Experimental: as §1

[8] = biological target: T8, JAK3 (Homo sapiens, UniProt P52333); assay: Kinase screening, HotSpot assay (Reaction Biology); assay type: biochemical
T8 construct: purchased Reaction Biology Corporation
Experimental: as §1

[9] = biological target: T9, LRRK2 (Homo sapiens, UniProt Q5S007); assay: Kinase screening, HotSpot assay (Reaction Biology); assay type: biochemical
T9 construct: purchased Reaction Biology Corporation
Experimental: as §1

[10] = biological target: T10, PKCmu/PRKD1 (Homo sapiens, UniProt Q15139); assay: Kinase screening, HotSpot assay (Reaction Biology); assay type: biochemical
T10 construct: purchased Reaction Biology Corporation
Experimental: as §1

[11] = biological target: T11, RET (Homo sapiens, UniProt P07949); assay: Kinase screening, HotSpot assay (Reaction Biology); assay type: biochemical
T11 construct: purchased Reaction Biology Corporation
Experimental: as §1

[12] = biological target: T12, SIK2 (Homo sapiens, UniProt Q9H0K1); assay: Kinase screening, HotSpot assay (Reaction Biology); assay type: biochemical
T12 construct: purchased Reaction Biology Corporation
Experimental: as §1

[13] = biological target: T13, TYRO3/SKY (Homo sapiens, UniProt Q06418); assay: Kinase screening, HotSpot assay (Reaction Biology); assay type: biochemical
T13 construct: purchased Reaction Biology Corporation
Experimental: as §1

[14] = biological target: T14, c-MER (Homo sapiens, UniProt Q12866); assay: Kinase screening, HotSpot assay (Reaction Biology); assay type: biochemical
T14 construct: purchased Reaction Biology Corporation
Experimental: as §1

[15] = biological target: T15, mLK1/MAP3K9 (Homo sapiens, UniProt P80192); assay: Kinase screening, HotSpot assay (Reaction Biology); assay type: biochemical
T15 construct: purchased Reaction Biology Corporation
Experimental: as §1

[16] = biological target: T16, FLT3 (Homo sapiens, UniProt P36888); assay: Kinase screening, HotSpot assay (Reaction Biology); assay type: biochemical
T16 construct: purchased Reaction Biology Corporation
T16 sequence (P36888 27-993): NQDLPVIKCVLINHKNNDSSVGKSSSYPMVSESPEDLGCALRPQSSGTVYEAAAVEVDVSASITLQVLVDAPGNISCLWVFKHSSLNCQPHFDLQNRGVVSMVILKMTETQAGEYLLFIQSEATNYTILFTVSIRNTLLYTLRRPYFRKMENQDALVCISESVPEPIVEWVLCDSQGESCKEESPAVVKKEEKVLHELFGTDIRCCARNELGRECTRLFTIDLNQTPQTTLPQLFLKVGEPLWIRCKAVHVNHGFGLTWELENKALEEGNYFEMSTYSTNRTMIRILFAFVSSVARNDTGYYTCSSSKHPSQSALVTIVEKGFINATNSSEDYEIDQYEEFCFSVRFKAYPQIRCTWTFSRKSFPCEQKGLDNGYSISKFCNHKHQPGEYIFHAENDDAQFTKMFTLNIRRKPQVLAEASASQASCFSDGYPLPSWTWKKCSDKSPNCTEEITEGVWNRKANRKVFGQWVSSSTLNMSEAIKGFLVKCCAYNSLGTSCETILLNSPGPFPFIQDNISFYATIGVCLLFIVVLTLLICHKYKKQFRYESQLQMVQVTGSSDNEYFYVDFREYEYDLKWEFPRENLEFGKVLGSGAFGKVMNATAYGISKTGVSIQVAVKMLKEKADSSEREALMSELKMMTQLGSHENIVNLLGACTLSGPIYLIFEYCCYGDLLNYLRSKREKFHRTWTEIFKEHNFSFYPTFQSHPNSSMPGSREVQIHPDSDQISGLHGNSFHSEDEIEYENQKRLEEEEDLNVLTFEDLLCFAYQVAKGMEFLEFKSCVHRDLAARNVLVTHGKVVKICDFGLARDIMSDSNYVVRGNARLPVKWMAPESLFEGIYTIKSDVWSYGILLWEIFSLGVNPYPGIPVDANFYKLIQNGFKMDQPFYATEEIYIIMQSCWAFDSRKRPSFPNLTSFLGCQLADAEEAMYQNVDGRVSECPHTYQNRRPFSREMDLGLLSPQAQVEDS
Experimental: Kinase screening was performed using a “HotSpot” assay platform method by Reaction Biology Corporation. The reaction buffer used herein contained 20 mM HEPES (pH 7.5), 10 mM MgCl2, 1 mM EGTA, 0.02% Brij35, 0.02 mg/mL BSA, 0.1 mM Na3VO4, 2 mM DTT and 1% DMSO. The required cofactors were added in accordance with the kinase reaction. Freshly made buffer and cofactors were added at a concentration of 20 μM during the selected enzyme reaction. A solution of the test compound in dimethylsulfoxide (DMSO) was added at a suitable concentration to this solution.

[17] = test system: MV-4-11 cells; assay: MV-4-11 cell screening (viable cells by ATP luminescence); assay type: cell-based; settings: Homo sapiens, MV4-11, 72 hours incubation, read-out: MV-4-11 cell line (IC50)
Experimental: A control compound was a 1 mM Staurosporine solution in DMSO.
25 μL of culture media containing 2,000 MV-4-11 cells were added and incubated at 37° C. in the presence of 5% CO2 for 72 hours. Then, the culture solution was mixed in an orbital shaker for 2 minutes and incubated at room temperature for 15 minutes. […] IC50 values are measured using the GraphPad Prism 4 program in accordance with the sigmoidal dose-response equation.

[18] = test system: K-562 cell line; assay: K-562 cell line activity; assay type: cell-based; settings: Homo sapiens, K562
[19] = test system: Ba/F3 FLT3-ITD; assay: Ba/F3 FLT3-ITD growth inhibition; assay type: cell-based; settings: Ba/F3 FLT3-ITD cells
[20] = test system: Ba/F3 parental; assay: Ba/F3 parental growth inhibition; assay type: cell-based; settings: Mus musculus, BaF3; Ba/F3 parental cells
[21] = biological target: T2, ARK5/NUAK1; settings: comparative values quoted in text, source not stated; read-out: ARK5/NUAK1 IC50 of comparative compounds; cited from earlier work
[22] = biological target: CYP 2C19 (Homo sapiens, UniProt P33261); assay: CYP450 assay (luminescence); assay type: in vitro ADME; settings: control compound at 100 μM, read-out: inhibitory activity against human CYP 2C19
Experimental: The resulting substance was reacted with NADPH for 20 minutes at 37° C. and a detection reagent was added to terminate the reaction. After stabilization at room temperature for 20 minutes, a luminescence signal was measured.

[23] = biological target: CYP 3A4 (Homo sapiens, UniProt P08684); assay: CYP450 assay (luminescence); assay type: in vitro ADME; settings: compound at 10 μM, read-out: inhibitory activity against human CYP 3A4
CYP 3A4, sequence (P08684 whole entry): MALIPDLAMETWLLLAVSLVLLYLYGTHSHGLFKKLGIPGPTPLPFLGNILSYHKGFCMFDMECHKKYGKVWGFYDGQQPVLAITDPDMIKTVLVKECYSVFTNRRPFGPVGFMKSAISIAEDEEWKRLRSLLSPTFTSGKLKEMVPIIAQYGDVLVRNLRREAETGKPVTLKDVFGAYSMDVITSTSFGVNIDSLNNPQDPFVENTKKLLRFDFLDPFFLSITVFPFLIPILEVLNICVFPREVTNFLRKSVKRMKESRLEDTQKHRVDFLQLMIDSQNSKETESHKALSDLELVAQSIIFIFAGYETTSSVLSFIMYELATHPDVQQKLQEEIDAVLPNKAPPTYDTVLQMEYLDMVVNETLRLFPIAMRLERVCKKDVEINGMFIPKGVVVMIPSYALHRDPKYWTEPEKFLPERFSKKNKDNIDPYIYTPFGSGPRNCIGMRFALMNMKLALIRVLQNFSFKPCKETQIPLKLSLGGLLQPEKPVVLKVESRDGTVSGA
Experimental: (§2) Compound 5 and a positive control stock solution were diluted with water to prepare a 40 μM working solution, and a solution containing an enzyme and a substrate was prepared using water and buffer. Compound 5/control/positive control and the solution were each dispensed on a 96-well and preincubated at 37° C. for 10 minutes. The resulting substance was reacted with NADPH for 20 minutes at 37° C. and a detection reagent was added to terminate the reaction. After stabilization at room temperature for 20 minutes, a luminescence signal was measured.

[24] = biological target: CYP 1A2 (Homo sapiens, UniProt P05177); assay: CYP450 assay (luminescence); assay type: in vitro ADME; settings: compound at 10 μM
Experimental: as §2

T1 sequence (Q07912 whole entry): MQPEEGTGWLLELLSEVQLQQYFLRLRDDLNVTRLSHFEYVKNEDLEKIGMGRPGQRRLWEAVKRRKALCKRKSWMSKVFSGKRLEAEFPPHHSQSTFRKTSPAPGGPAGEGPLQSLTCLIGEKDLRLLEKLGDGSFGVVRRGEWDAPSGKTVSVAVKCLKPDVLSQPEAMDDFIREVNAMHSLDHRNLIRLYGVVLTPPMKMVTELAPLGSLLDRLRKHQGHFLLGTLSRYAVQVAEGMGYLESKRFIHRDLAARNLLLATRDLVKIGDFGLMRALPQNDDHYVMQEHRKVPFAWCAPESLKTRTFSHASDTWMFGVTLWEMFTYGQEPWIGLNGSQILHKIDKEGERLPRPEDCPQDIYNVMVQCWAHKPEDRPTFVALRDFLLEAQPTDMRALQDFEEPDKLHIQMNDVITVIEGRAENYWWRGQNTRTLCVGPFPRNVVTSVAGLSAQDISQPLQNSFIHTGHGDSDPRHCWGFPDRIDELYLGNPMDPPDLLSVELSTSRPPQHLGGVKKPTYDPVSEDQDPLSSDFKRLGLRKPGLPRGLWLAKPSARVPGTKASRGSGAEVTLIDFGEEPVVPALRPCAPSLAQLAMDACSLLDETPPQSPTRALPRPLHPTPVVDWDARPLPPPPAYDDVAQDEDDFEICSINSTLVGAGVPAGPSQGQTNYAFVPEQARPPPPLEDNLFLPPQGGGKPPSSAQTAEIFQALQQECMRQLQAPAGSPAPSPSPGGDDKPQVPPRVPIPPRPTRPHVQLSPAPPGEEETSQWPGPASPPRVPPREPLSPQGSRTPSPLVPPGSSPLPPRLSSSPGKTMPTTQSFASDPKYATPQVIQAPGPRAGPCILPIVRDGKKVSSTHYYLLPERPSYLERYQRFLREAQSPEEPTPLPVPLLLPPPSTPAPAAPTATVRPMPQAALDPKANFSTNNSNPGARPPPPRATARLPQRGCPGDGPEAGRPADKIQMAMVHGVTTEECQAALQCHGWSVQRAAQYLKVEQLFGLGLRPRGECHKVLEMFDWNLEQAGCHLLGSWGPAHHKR

Compound: Cc1cnc(Nc2ccc(OCCN3CCCC3)cc2)nc1NCc1ccco1 [Compound 1, 4-(furan-2-yl)methylamino-5-methyl-2-[4-{2-(pyrrolidin-1-yl)ethoxy}phenylamino]pyrimidine]
- IC50 [1]: 38.8 nM
- IC50 [2]: 5.9 nM
- IC50 [3]: 443 nM
- IC50 [4]: 207 nM
- IC50 [5]: 50 nM
- IC50 [6]: 50.1 nM
- IC50 [7]: 95.2 nM
- IC50 [8]: 207 nM
- IC50 [9]: 113 nM
- IC50 [10]: 167 nM
- IC50 [11]: 488 nM
- IC50 [12]: 105 nM
- IC50 [13]: 10700 nM
- IC50 [14]: 14300 nM
- IC50 [15]: 148 nM
- IC50 [16]: 10.3 nM
- IC50 [17]: 65.9 nM
- IC50 [18]: 5100 nM
- GI50 [19]: 92 nM
- GI50 [20]: 1790 nM

Compound: Fc1cnc(Nc2ccc(OCCN3CCCC3)cc2)nc1NCc1ccco1 [Compound 20, 4-(furan-2-yl) methylamino-5-fluoro-2-[4-{2-(pyrrolidin-1-yl)ethoxy}phenylamino]pyrimidine]
- IC50 [1]: 101 nM
- IC50 [2]: 52.3 nM
- IC50 [5]: 177 nM
- IC50 [6]: 99.1 nM
- IC50 [7]: 238 nM
- IC50 [16]: 22 nM
- GI50 [19]: 178 nM
- GI50 [20]: 6670 nM

Compound: FC(F)(F)c1cnc(Nc2ccc(OCCN3CCCC3)cc2)nc1NCc1ccco1 [Compound 21, 4-(furan-2-yl) methylamino-5-trifluoromethyl-2-[4-{2-(pyrrolidin-1-yl)ethoxy}phenylamino]pyrimidine]
- GI50 [19]: 558 nM
- GI50 [20]: 8060 nM

Compound: Cc1nc(Nc2cnn(C3CCNCC3)c2)nc2c1N(C)C(=O)c1cc3ccccc3cc1N2C [HTH-01-015]
- IC50 [21]: 100 nM

Compound: CN(C)CCC=C1c2ccccc2CCc2ccccc21 [amitriptyline, reference compound]
- inhibition at 20 min, 100 µM [22]: 88%

Compound: CC(=O)N1CCN(c2ccc(OCC3COC(Cn4ccnc4)(c4ccc(Cl)cc4Cl)O3)cc2)CC1 (stereo not shown) [ketoconazole, reference compound]
- inhibition at 20 min, 10 µM [23]: 98.7%

Compound: αα-naphthoflavone [reference compound]
- inhibitory activity against human CYP 1A2 [24]: 97.7
